From patent US6919379B2, “Compounds useful in reflux disease” (AstraZeneca AB, priority 2001, dated 2005) come the findings set out here.

As for `NC[C@@H](F)CS(=O)O`, the melting point was in the range of 136 to 138 °C.
Next, `NC[C@H](O)CS(=O)O` [Example 1, (2S)-(3-Amino-2-hydroxypropyl)sulphinic acid]: 206 to 208 °C; `NC[C@@H](O)CS(=O)O` [Example 2, (2R)-(3-Amino-2-hydroxypropyl)sulphinic acid]: 210 °C.

By melting point is commonly meant the temperature of the solid-liquid transition.
